These molecules were tested against T1, human plasma protein factor Xa (Homo sapiens, UniProt P00742) (assay: Factor Xa IC50 determination (cleavage of paranitroanilide substrate S-2765)). Settings: factor Xa 1 nM, S-2765 100 μM, Tris buffered saline pH 7.4, read at 405 nm.
T1 construct: The human plasma protein factor Xa was purchased; purchased Haematologic Technologies (Essex Junction, Vt.); host or cells: human plasma
T1 sequence (P00742 235-488 limits assumed): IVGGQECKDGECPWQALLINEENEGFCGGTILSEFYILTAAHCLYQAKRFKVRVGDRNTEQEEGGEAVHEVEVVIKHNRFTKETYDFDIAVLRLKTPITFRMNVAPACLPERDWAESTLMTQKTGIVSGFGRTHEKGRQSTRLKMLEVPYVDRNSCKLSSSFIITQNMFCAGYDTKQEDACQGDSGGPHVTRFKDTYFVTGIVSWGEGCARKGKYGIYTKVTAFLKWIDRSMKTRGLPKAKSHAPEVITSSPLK
T1 sequence (P00742 41-179 partner limits assumed): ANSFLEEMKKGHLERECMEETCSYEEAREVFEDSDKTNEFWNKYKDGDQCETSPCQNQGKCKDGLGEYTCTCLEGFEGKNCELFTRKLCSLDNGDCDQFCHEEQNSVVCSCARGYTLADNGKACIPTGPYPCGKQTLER
Assay type: biochemical
From the text: This example illustrates methods for evaluating the compounds of the invention, along with results obtained for such assays. The in vitro and in vivo human Factor Xa activities of the inventive compounds can be determined by various procedures known in the art, such as a test for their ability to inhibit the activity of human plasma Factor Xa. […] The IC50 value is the concentration (in nM) of the compound required to provide 50% inhibition of human Factor Xa proteolytic activity.
An in vitro assay for detecting and measuring inhibition activity against Factor Xa is as follows:
The substrate S-2765 (Z-D-Arg-Gly-Arg-pNA.HCl) was obtained from Diapharma (West Chester, Ohio).
The human plasma protein factor Xa was purchased from Haematologic Technologies (Essex Junction, Vt.).
All assays, which are performed in 96-well microtiter plates, measure proteolytic activity of the enzyme (factor Xa) by following cleavage of a paranitroanilide peptide substrate. The assay buffer used for proteolytic assays was Tris buffered saline (20 mM Tris, 150 mM NaCl, 5 mM CaCl2, 0.1% Bovine serum albumin (BSA), 5% Dimethly Sulfoxide (DMSO) pH 7.4). In a 96-well microtiter plate, inhibitor was serially diluted to give a range of final concentrations from 0.01 nM to 10 μM. Duplicate sets of wells were assayed and control wells without inhibitor were included. Enzyme was added to each well, (factor Xa concentration=1 nM), the plate was shaken for 5 seconds and then incubated for 5 minutes at room temperature. S-2765 was added (100 μM final) and the plate was shaken for 5 seconds (final volume in each well was 200 μl). The degree of substrate hydrolysis was measured at 405 nm on a Thermomax plate reader (Molecular Devices, Sunnyvale, Calif.) for 2 minutes. The initial velocities of substrate cleavage (mOD/min), for each range of inhibitor concentrations, were fitted to a four parameter equation using Softmax data analysis software. The parameter C, derived from the resulting curve-fit, corresponded to the concentration for half maximal inhibition (IC50).
Molecule `O=C(NCc1cn(-c2ccc(-n3ccccc3=O)cc2-n2ccnc2)nn1)c1ccc(Cl)s1` [Compound 42, N-((1-(2-(1H-Imidazol-1-yl)-4-(2-oxopyridin-1(2H)-yl)phenyl)-1H-1,2,3-triazol-4-yl)methyl)-5-chlorothiophene-2-carboxamide] has an IC50 of at most 100 nM. `O=C(NCc1cn(-c2ccc(-n3ccccc3=O)cc2OCc2cscn2)nn1)c1ccc(Cl)s1` [Compound 171, 5-Chloro-N-((1-(4-(2-oxopyridin-1(2H)-yl)-2-(thiazol-4-ylmethoxy)phenyl)-1H-1,2,3-triazol-4-yl)methyl)thiophene-2-carboxamide] gave an IC50 of at most 100 nM. For `CSc1cc(-n2ccccc2=O)ccc1-n1cc(CNC(=O)c2ccc(Cl)s2)nn1` [Compound 50, 5-Chloro-N-((1-(2-(methylthio)-4-(2-oxopyridin-1(2H)-yl)phenyl)-1H-1,2,3-triazol-4-yl)methyl)thiophene-2-carboxamide], the IC50 was at most 100 nM. `O=C(NCc1cn(-c2ccc(-n3ccccc3=O)cc2N2CCC[C@@H](O)C2)nn1)c1ccc(Cl)s1` [Compound 22, 5-Chloro-N-((1-(2-((R)-3-hydroxypiperidin-1-yl)-4-(2-oxopyridin-1(2H)-yl)phenyl)-1H-1,2,3-triazol-4-yl)methyl)thiophene-2-carboxamide] was tested, and the IC50 was at most 100 nM. `O=C1CN(Cc2cc(-n3ccccc3=O)ccc2-n2cc(CNC(=O)c3ccc(Cl)s3)nn2)CCN1` [Compound 161, 5-Chloro-N-((1-(2-((3-oxopiperazin-1-yl)methyl)-4-(2-oxopyridin-1(2H)-yl)phenyl)-1H-1,2,3-triazol-4-yl)methyl)thiophene-2-carboxamide] showed an IC50 of at most 100 nM. With `C[S+]([O-])c1cc(-n2ccccc2=O)ccc1-n1cc(CNC(=O)c2ccc(Cl)s2)nn1` (stereo not drawn) [Compound 51, 5-Chloro-N-((1-(2-(methylsulfoxy)-4-(2-oxopyridin-1(2H)-yl)phenyl)-1H-1,2,3-triazol-4-yl)methyl)thiophene-2-carboxamide] the IC50 was at most 100 nM. `NC(=O)C1CCN(C(=O)c2cc(-n3ccccc3=O)ccc2-n2cc(CNC(=O)c3ccc(Cl)s3)nn2)CC1` [Compound 116, 1-(2-(4-((5-Chlorothiophene-2-carboxamido)methyl)-1H-1,2,3-triazol-1-yl)-5-(2-oxopyridin-1(2H)-yl)benzoyl)piperidine-4-carboxamide] showed an IC50 of 100 to 500 nM. `O=C(NCc1cn(-c2ccc(-n3ccccc3=O)cc2OCCc2ccncc2)nn1)c1ccc(Cl)s1` [Compound 91, 5-Chloro-N-((1-(4-(2-oxopyridin-1(2H)-yl)-2-(2-(pyridin-4-yl)ethoxy)phenyl)-1H-1,2,3-triazol-4-yl)methyl)thiophene-2-carboxamide] showed an IC50 of at most 100 nM. Molecule `O=C(NCc1cn(-c2ccc(-n3ccccc3=O)cc2OCCn2ccnc2)nn1)c1ccc(Cl)s1` [Compound 148, N-((1-(2-(2-(1H-Imidazol-1-yl)ethoxy)-4-(2-oxopyridin-1(2H)-yl)phenyl)-1H-1,2,3-triazol-4-yl)methyl)-5-chlorothiophene-2-carboxamide] has an IC50 of at most 100 nM. `CN(C)c1cc(-n2ccccc2=O)ccc1-n1cc(CNC(=O)c2ccc(Cl)s2)nn1` [Compound 2, 5-Chloro-N-((1-(2-(dimethylamino)-4-(2-oxopyridin-1(2H)-yl)phenyl)-1H-1,2,3-triazol-4-yl)methyl)thiophene-2-carboxamide] showed an IC50 of at most 100 nM. In the case of `O=C(NCc1cn(-c2ccc(-n3ccccc3=O)cc2-c2ccc(Cl)nc2)nn1)c1ccc(Cl)s1` [Compound 135, 5-Chloro-N-((1-(2-(6-chloropyridin-3-yl)-4-(2-oxopyridin-1(2H)-yl)phenyl)-1H-1,2,3-triazo1-4-yl)methyl)thiophene-2-carboxamide], the IC50 is reported as at most 100 nM. `Nc1ccc(-c2cc(-n3ccccc3=O)ccc2-n2cc(CNC(=O)c3ccc(Cl)s3)nn2)cn1` [Compound 144, N-((1-(2-(6-Aminopyridin-3-yl)-4-(2-oxopyridin-1(2H)-yl)phenyl)-1H-1,2,3-triazol-4-yl)methyl)-5-chlorothiophene-2-carboxamide] gave an IC50 of at most 100 nM. `O=C(NCc1cn(-c2ccc(-n3ccccc3=O)cc2N2CC[S+]([O-])CC2)nn1)c1ccc(Cl)s1` [Compound 11, 5-Chloro-N-((1-(4-(2-oxopyridin-1(2H)-yl)-2-((1-oxo-)thiomorpholino)phenyl)-1H-1,2,3-triazol-4-yl)methyl)thiophene-2-carboxamide] showed an IC50 of at most 100 nM. In the case of `O=C(NCc1cn(-c2ccc(-n3ccccc3=O)cc2OCc2nccn2Cc2ncc[nH]2)nn1)c1ccc(Cl)s1` [Compound 178, N-((1-(2-((1-((1H-imidazol-2-yl)methyl)-1H-imidazol-2-yl)methoxy)-4-(2-oxopyridin-1(2H)-yl)phenyl)-1H-1,2,3-triazol-4-yl)methyl)-5-chlorothiophene-2-carboxamide], the IC50 is reported as at most 100 nM. With `CS(=O)(=O)c1cc(-n2ccccc2=O)ccc1-n1cc(CNC(=O)c2ccc(Cl)s2)nn1` [Compound 52, 5-Chloro-N-((1-(2-(methylsulfonyl)-4-(2-oxopyridin-1(2H)-yl)phenyl)-1H-1,2,3-triazol-4-yl)methyl)thiophene-2-carboxamide] the IC50 was at most 100 nM. `NC(=O)NC1CCN(c2cc(-n3ccccc3=O)ccc2-n2cc(CNC(=O)c3ccc(Cl)s3)nn2)CC1` [Compound 20, 1-(1-(2-(4-((2-Chlorothiophene-5-carboxamido)methyl)-1H-1,2,3-triazol-1-yl)-5-(2-oxopyridin-l(2H)-yl)phenyl)piperidin-4-yl)urea] showed an IC50 of at most 100 nM. `O=C(NCc1cn(-c2ccc(-n3ccccc3=O)cc2OCc2nnn[nH]2)nn1)c1ccc(Cl)s1` [Compound 98, N-((1-(2-((1H-Tetrazol-5-yl)methoxy)-4-(2-oxopyridin-1(2H)-yl)phenyl)-1H-1,2,3-triazol-4-yl)methyl)-5-chlorothiophene-2-carboxamide] showed an IC50 of at most 100 nM. Work on `NC(=O)CCNC(=O)c1cc(-n2ccccc2=O)ccc1-n1cc(CNC(=O)c2ccc(Cl)s2)nn1` [Compound 147, N-((1-(2-(3-Amino-3-oxopropylcarbamoyl)-4-(2-oxopyridin-1(2H)-yl)phenyl)-1H-1,2,3-triazol-4-yl)methyl)-5-chlorothiophene-2-carboxamide] yielded an IC50 of 100 to 500 nM. With `O=C(NCc1cn(-c2ccc(-n3ccccc3=O)cc2OCCN2CCCCC2)nn1)c1ccc(Cl)s1` [Compound 89, 5-Chloro-N-((1-(4-(2-oxopyridin-1(2H)-yl)-2-(2-(piperidin-1-yl)ethoxy)phenyl)-1H-1,2,3-triazol-4-yl)methyl)thiophene-2-carboxamide] the IC50 was at most 100 nM. In the case of `O=C(NCc1cn(-c2ccc(-n3ccccc3=O)cc2N2CCS(=O)(=O)CC2)nn1)c1ccc(Cl)s1` [Compound 12, 5-Chloro-N-((1-(4-(2-oxopyridin-1(2H)-yl)-2-((1,1-dioxo-)thiomorpholino)phenyl)-1H-1,2,3-triazol-4-yl)methyl)thiophene-2-carboxamide], the IC50 is reported as at most 100 nM. For `O=C(NCc1cn(-c2ccc(-n3ccccc3=O)cc2-c2cccnc2)nn1)c1ccc(Cl)s1` [Compound 126, 5-Chloro-N-((1-(4-(2-oxopyridin-1(2H)-yl)-2-(pyridin-3-yl)phenyl)-1H-1,2,3-triazol-4-yl)methyl)thiophene-2-carboxamide], the IC50 was at most 100 nM. In the case of `CN(C)c1ccc(-c2cc(-n3ccccc3=O)ccc2-n2cc(CNC(=O)c3ccc(Cl)s3)nn2)cn1` [Compound 145, 5-Chloro-N-((1-(2-(6-(dimethylamino)pyridin-3-yl)-4-(2-oxopyridin-1(2H)-yl)phenyl)-1H-1,2,3-triazol-4-yl)methyl)thiophene-2-carboxamide], the IC50 is reported as at most 100 nM. In the case of `O=C(O)COc1cc(-n2ccccc2=O)ccc1-n1cc(CNC(=O)c2ccc(Cl)s2)nn1` [Compound 96, 2-(2-(4-((2-Chlorothiophene-5-carboxamido)methyl)-1H-1,2,3-triazol-1-yl)-5-(2-oxopyridin-1(2H)-yl)phenoxy)acetic acid], the IC50 is reported as 100 to 500 nM. In the case of `NC(=O)c1cc(-n2ccccc2=O)ccc1-n1cc(CNC(=O)c2ccc(Cl)s2)nn1` [Compound 101, N-((1-(2-Carbamoyl-4-(2-oxopyridin-1(2H)-yl)phenyl)-1H-1,2,3-triazol-4-yl)methyl)-5-chlorothiophene-2-carboxamide], the IC50 is reported as at most 100 nM. With `COCCOc1cc(-n2ccccc2=O)ccc1-n1cc(CNC(=O)c2ccc(Cl)s2)nn1` [Compound 76, 5-Chloro-N-((1-(2-(2-methoxyethoxy)-4-(2-oxopyridin-1(2H)-yl)phenyl)-1H-1,2,3-triazol-4-yl)methyl)thiophene-2-carboxamide] the IC50 was at most 100 nM. For `CN(C)CC[N+](C)(C)CCOc1cc(-n2ccccc2=O)ccc1-n1cc(CNC(=O)c2ccc(Cl)s2)nn1` [Compound 86], the IC50 was at most 100 nM. `CN(C)CCN(C)C(=O)c1cc(-n2ccccc2=O)ccc1-n1cc(CNC(=O)c2ccc(Cl)s2)nn1` [Compound 111, 5-Chloro-N-((1-(2-((2-(dimethylamino)ethyl)(methyl)carbamoyl)-4-(2-oxopyridin-1(2H)-yl)phenyl)-1H-1,2,3-triazol-4-yl)methyl)thiophene-2-carboxamide] gave an IC50 of 100 to 500 nM.

From patent publication US20110160196A1, “FACTOR XA INHIBITORS” (Millennium Pharmaceuticals, Inc., priority 2007, published 2011)
